Assay results published in PubChem BioAssay (NCI).
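Cultured in 96-well plates, cells were exposed to test compound for 48 hours across five concentrations. Here, GI50 denotes the concentration required for 50% inhibition of growth. TGI is the concentration that stops growth completely.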

Key:
Test in all cases: growth of human tumour cells (NCI), 48 h
NCI-H460 lung = test system: NCI-H460 lung
NCI-H226 lung = test system: NCI-H226 lung
SW-620 colon = test system: SW-620 colon
786-0 renal = test system: 786-0 renal
OVCAR-4 ovarian = test system: OVCAR-4 ovarian
HOP-62 NSCLC = test system: HOP-62 NSCLC
SNB-75 CNS = test system: SNB-75 CNS
NCI-H23 lung = test system: NCI-H23 lung
MCF7 breast = test system: MCF7 breast
NCI/ADR-RES ovarian = test system: NCI/ADR-RES ovarian
MDA-N = test system: MDA-N
BT-549 breast = test system: BT-549 breast

| Compound | TGI (NCI-H460 lung) [µM] | TGI (NCI-H226 lung) [µM] | TGI (SW-620 colon) [µM] | TGI (786-0 renal) [µM] | TGI (OVCAR-4 ovarian) [µM] | TGI (HOP-62 NSCLC) [µM] | TGI (SNB-75 CNS) [µM] | TGI (NCI-H23 lung) [µM] | TGI (MCF7 breast) [µM] | TGI (NCI/ADR-RES ovarian) [µM] | TGI (MDA-N) [µM] | GI50 (BT-549 breast) [µM] | TGI (BT-549 breast) [µM] | GI50 (MCF7 breast) [µM] | GI50 (NCI-H460 lung) [µM] | GI50 (NCI/ADR-RES ovarian) [µM] | GI50 (NCI-H226 lung) [µM] | GI50 (SNB-75 CNS) [µM] | GI50 (NCI-H23 lung) [µM] | GI50 (OVCAR-4 ovarian) [µM] |
| --- | --- | --- | --- | --- | --- | --- | --- | --- | --- | --- | --- | --- | --- | --- | --- | --- | --- | --- | --- | --- |
| O=[N+]([O-])c1ccc(CN=C2NNS(=O)(=O)c3ccccc32)cc1 | > 100 | > 100 | > 100 | > 100 | > 100 |  |  |  |  |  |  |  |  |  |  |  |  |  |  |  |
| CN(C)CCN(C)C(=O)C1CCCN1C(=O)OCc1ccccc1 (stereo unspecified) | > 100 | > 100 | > 100 | > 100 | > 100 | > 100 | > 100 | > 100 |  |  |  |  |  |  |  |  |  |  |  |  |
| CC(=O)Oc1ccc(Nn2c3ccccc3c3ccccc32)c(C)c1 | > 100 |  | 79.9 | 41.7 |  | > 100 |  | > 100 |  |  |  |  |  |  |  |  |  |  |  |  |
| CC(C)COP(C)(=O)C(N)(C(F)(F)F)C(F)(F)F (stereo unspecified) |  | > 100 | > 100 | > 100 | > 100 | > 100 | > 100 | > 100 | > 100 | > 100 | > 100 |  |  |  |  |  |  |  |  |  |
| CC(C)OC(=O)NNc1cccc(Cl)c1 | > 100 | > 100 | > 100 | > 100 |  | > 100 | > 100 | > 100 | > 100 | > 100 | > 100 |  |  |  |  |  |  |  |  |  |
| C/C(=C\CNc1ncnc2c1ncn2CCC(=O)OC(C)(C)C)CO | > 100 | > 100 | > 100 | > 100 | > 100 | > 100 | > 100 | > 100 | > 100 | > 100 | > 100 |  |  |  |  |  |  |  |  |  |
| CN1c2ccccc2C(=O)NC12CCNCC2 | > 100 | > 100 | > 100 | > 100 | > 100 | > 100 | > 100 | > 100 | > 100 | > 100 |  |  |  |  |  |  |  |  |  |  |
| COc1cc(/C=C/C(=O)c2ccc(F)cc2)ccc1OCCCCCOc1cc2c(cc1OC)C(=O)N1CCCC1C=N2 (stereo unspecified) | 0.0179 | 1.07 |  |  | > 100 |  | 0.187 | 0.0662 | 0.0395 | 2.47 |  | 0.0214 | 0.0974 | < 0.01 | < 0.01 | 0.239 | 0.0493 | 0.034 | 0.0186 | 0.0265 |
| O=C1C=CC(=O)c2cc(Sc3ccccc3)c(=O)c(Sc3ccccc3)cc21 | > 100 | > 100 | > 100 | > 100 | > 100 | > 100 | > 100 | > 100 |  |  |  |  |  |  |  |  |  |  |  |  |
| O=C(O)C1=CN(c2ccncc2)C(c2ccco2)=CC1c1ccccc1[N+](=O)[O-] (stereo unspecified) | 36.3 | 38.3 | > 31.7 | 4.15 | 28.2 | 32.9 | 22.1 | 29.1 | 10.7 | > 69.8 |  |  | 26.9 |  |  |  |  |  |  |  |
| C=CC(=O)NCNC(=O)C=C | > 100 | > 100 | > 100 | > 100 | > 100 | > 100 | > 100 | > 100 |  |  |  |  |  |  |  |  |  |  |  |  |
| C/C(=N\O)C1CC2C=C(C#N)C1N(Cc1ccccc1)C2 (stereo unspecified) | > 100 | > 100 | > 100 | > 100 |  | > 100 | > 100 | > 100 | > 100 | > 100 | > 100 |  |  |  |  |  |  |  |  |  |
| CCP(=O)(CC)C(Cl)(Cl)C(O)C(Cl)(Cl)Cl (stereo unspecified) | > 100 | > 100 | > 100 |  | > 100 | > 100 | > 100 | > 100 | > 100 | > 100 | > 100 |  |  |  |  |  |  |  |  |  |
| O=C1CCCC2=C1CC1=C(CCCC1=O)N2c1ccc([N+](=O)[O-])cc1 | > 100 | > 100 | > 100 | > 100 | > 100 |  | > 100 | > 100 | > 100 | > 100 |  |  | > 100 |  |  |  |  |  |  |  |
| C/C1=C/C[C@@H](/C(C)=C/c2csc(C)n2)OC(=O)C[C@H](O)C(C)(C)C(=O)[C@H](C)[C@@H](O)[C@@H](C)CCC1 | 0.23 | 0.214 | 0.24 | 0.228 | 0.472 | 0.259 |  | 0.169 | 0.231 | 0.000238 |  |  | 0.198 |  |  |  |  |  |  |  |
| Oc1c(Cl)c(Cl)c(O)c(CCNc2nccs2)c1Cl | 41.1 |  | 7.72 | 33.5 | > 100 | 40.7 | 42.3 | 37.9 | 10.2 | 50.5 |  |  |  |  |  |  |  |  |  |  |
| Cc1cc(C)c(NC(=O)/C=C/c2ccccc2)c(C)c1 | > 100 | > 100 | > 100 |  | > 100 | > 100 | > 100 | > 100 | > 100 | > 100 |  |  | > 100 |  |  |  |  |  |  |  |
| CO[C@H]1O[C@@H]2OC3(C)CCC4[C@H](C)CCC([C@H]1C)[C@]42OO3 (stereo partly specified) | > 100 | > 100 | > 100 | > 100 | > 100 | > 100 | > 100 | > 100 |  | > 100 | > 100 |  |  |  |  |  |  |  |  |  |
